Test results taken from publication PMC9428149, “Tackling recalcitrant Pseudomonas aeruginosa infections in critical illness via anti-virulence monotherapy” (Nature Communications, 2022).
“And” between values parts separate entries of the source, which are not always exact repeats. Identical values can stand only once. “Also recorded” adds a separate entry of the source. Like-named read-outs stand apart in the source and are kept apart here.

Assays:
[1] = test system: MvfR-regulated small molecules at the site of infection; test: Production of HHQ, PQS, HQNO, 2-AA and DHQ in vivo; design: species or system mouse
Experimental: (§1) For the group supplemented with our MvfR-inhibiting compound (D88), mice received five subcutaneous injections (at the nape of the animals) at 1, 4, 8, 12, and 18 h post-BI, at a dose of 24 mg kg^−1 body weight. D88 was prepared in a 40% Captisol vehicle. Control groups received equivalent doses of 40% Captisol vehicle.
To measure the production of HHQ, PQS, HQNO, 2-AA, and DHQ in vivo, underlying muscle from the site of infection was collected at 12 h and 22 h post-infection, and the small molecules were extracted by homogenizing them immediately in 1 mL sterile PBS as above. A 500 μL of sample was mixed with an equal volume of methanol containing 10 ppm of HHQ-D4 and 20 ppm of PQS-D4, spun down for 5 min, and 700 μL of supernatant were put in glass vials. Liquid chromatography-mass spectrophotometry ([…]) analysis was performed as described above and in[66].

Caco-2 cells = test: MTT cytotoxicity, Caco-2; type: cell-based, human; details: for Cell viability (MTT) relative to Vehicle: Caco-2, replicates
Experimental: (§2) For the determination of cytotoxicity, cell viability was determined using the MTT (3-[4, 5-dimethyl-2-thiazolyl]−2, 5-diphenyl-2H-tetrazolium bromide) assay in the presence and absence of compound (D88). […] The cells were then treated with either vehicle or different concentrations of D88 (10, 20, 30, 40, and 50 µM) for 24 h at 37 °C and 5% CO2. After 24 h, the cells were washed three times with PBS and were incubated in 200 μL PBS containing 200 μg mL^−1 MTT (Sigma-Aldrich) in a 96-well culture plate for 2 h at 37 °C and 5% CO2. Following incubation, the supernatant was discarded, and the cells were lysed in 95% isopropanol and 5% formic acid.

PA14 burn-site infection [2] = test: In vivo intestinal permeability (FITC-dextran) in burn-site infection model; design: species or system mouse
A549 cells = test: MTT cytotoxicity, A549; type: cell-based, human; details: for Cell viability (MTT) relative to Vehicle: A549, replicates
Experimental: as §2

Hep G2 cells = test: MTT cytotoxicity, Hep G2; type: cell-based, human; details: for Cell viability (MTT) relative to Vehicle: Hep G2, replicates
Experimental: as §2

[3] = target: MvfR binding to the pqsA promoter (Pseudomonas aeruginosa, UniProt Q9I4X0); type: cell-based; details: for MvfR binding to the pqsA promoter (ChIP-qPCR): D88 +, Figure 5c, replicates
Sequence of MvfR binding to the pqsA promoter (Q9I4X0 whole entry, looked up): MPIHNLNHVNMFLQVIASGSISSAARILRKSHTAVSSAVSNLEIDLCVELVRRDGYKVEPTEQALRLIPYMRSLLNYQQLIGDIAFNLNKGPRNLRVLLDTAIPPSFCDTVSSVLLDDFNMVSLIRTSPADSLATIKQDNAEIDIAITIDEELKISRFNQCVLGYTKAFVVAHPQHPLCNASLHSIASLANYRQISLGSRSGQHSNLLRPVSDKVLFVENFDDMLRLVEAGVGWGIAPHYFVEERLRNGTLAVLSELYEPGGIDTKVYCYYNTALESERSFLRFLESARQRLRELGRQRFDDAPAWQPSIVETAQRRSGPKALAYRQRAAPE

PA14 burn-site infection [4] = test: Bacterial dissemination and load (CFU) in burn-site infection model; type: in vivo, mouse
TNF-α = test: Ileal TNF-α ELISA; type: in vivo, mouse; details: burn + PA14 + D88, 22 h
Experimental: as §1
(§3) Distal ileal TNF-α and IL-6 were quantified using the mouse TNF-α enzyme-linked immunosorbent assay [ELISA] Ready-SET-Go kit (eBioscience; San Diego, CA, USA) and the Mouse IL-6 DuoSet ELISA (R&D Systems) respectively, as per the manufacturer’s instructions.

[5] = DMPK of D88 in mice (plasma); type: in vivo, mouse; details: for half-life: read-out: half-life (T ½) (converted)
Experimental: Experiments were conducted by Aptuit (Verona) S.rl, an Evotec Company in Italy. Six weeks old male CD-1 mice were obtained from Charles River Laboratories, Italy. Mice were maintained on a 12 h light cycle with ad libitum access to rodent feed and water.
Healthy animals received IV 1.0 mg kg^−1 or SC administration of the 10.2 mg kg^−1 in homogeneous suspension in 0.5 % HPMC in water at the volume of 1.7 mL kg^−1. Following administration, blood samples were collected under deep isoflurane anesthesia from the cava vein of each mouse into tubes with K3EDTA, thoroughly but gently mixed, and placed on wet ice. Within 0.5 h of collection, blood was centrifuged (2500 g for 10 min at 4 °C) and within 0.5 h, aliquots of plasma were transferred into appropriately labeled sample tubes. A first 20 µL aliquot were mixed with 80 µL of Hepes 0.1 N. A second 5 µL aliquot of plasma was added to a well plate for urea quantification without dilution. Plasma samples were processed using a method based on protein precipitation with acetonitrile followed by HPLC/MS-MS analysis with an optimized analytical method.

IL-6 = test: Ileal IL-6 ELISA; type: in vivo, mouse; details: burn + PA14 + D88, 22 h
Experimental: as §1, §3

RAW 264.7 cells = test: MTT cytotoxicity, RAW 264.7; type: cell-based, mouse; details: for Cell viability (MTT) relative to Vehicle: RAW 264.7, replicates
Experimental: as §2

[6] = D88 Treated 12h, site of infection, single mice, Figure 6d
[7] = D88 Treated 22h, site of infection, single mice, Figure 6d
[8] = male, CD-1, mouse, 1 mg/kg IV, plasma
[9] = male, CD-1, mouse, 10 mg/kg SC, plasma

N#Cc1ccc(NC(=O)C(F)C(=O)Nc2ccc(Oc3ccccc3)cc2)cc1 (stereo not shown) [D88]
levels of HHQ, PQS, HQNO, 2-AA and DHQ at the site of infection ([1]; 12 h post-infection): strong inhibitory efficacy
levels of HHQ, PQS, HQNO, 2-AA and DHQ at the site of infection ([1]; 22 h post-infection): complete abolishment
DHQ [1, 6]: 0.0000
HQNO [1, 6]: 0.0000
2-AA [1, 7]: 0.0000
DHQ [1, 7]: 0.0000
cell viability (Caco-2 cells; Caco-2, 10-50 µM, 24 h): None of the used compound concentrations exerted any cytotoxic effect; also recorded: no significant changes in cell viability
Cell viability (MTT) relative to Vehicle (Caco-2 cells; 10 μM): 100.58 and 104.90 and 98.04 and 98.93 and 106.77 and 103.03
Cell viability (MTT) relative to Vehicle (Caco-2 cells; 20 μM): 88.76 and 107.49 and 114.33 and 95.92 and 103.96 and 102.97
Cell viability (MTT) relative to Vehicle (Caco-2 cells; 30 μM): 90.12 and 104.03 and 109.17 and 85.43 and 91.84 and 104.53
Cell viability (MTT) relative to Vehicle (Caco-2 cells; 40 μM): 102.40 and 93.65 and 104.99 and 92.78 and 93.27 and 104.68
Cell viability (MTT) relative to Vehicle (Caco-2 cells; 50 μM): 105.69 and 94.78 and 111.93 and 95.33 and 96.54 and 98.13
mean FITC-dextran in serum (PA14 burn-site infection [2]; burn + PA14 infection, D88 24 mg kg^−1 SC x5, 22 h): 2759 ng/mL
mean FITC-dextran in serum (PA14 burn-site infection [2]; burn alone without infection, D88-treated, 22 h): 850 ng/mL
intestinal permeability status (PA14 burn-site infection [2]; mvfR mutant-infected mice treated with D88 vs no treatment or vehicle): no difference in the intestinal permeability status
cell viability (A549 cells; A549, 10-50 µM, 24 h): None of the used compound concentrations exerted any cytotoxic effect; also recorded: no significant changes in cell viability
Cell viability (MTT) relative to Vehicle (A549 cells; 10 μM): 104.92 and 112.79 and 105.24 and 97.24 and 88.17
Cell viability (MTT) relative to Vehicle (A549 cells; 20 μM): 104.85 and 98.03 and 95.15 and 98.27 and 93.91
Cell viability (MTT) relative to Vehicle (A549 cells; 30 μM): 88.06 and 91.37 and 110.19 and 88.29 and 118.10
Cell viability (MTT) relative to Vehicle (A549 cells; 40 μM): 104.24 and 86.59 and 104.97 and 101.16 and 96.70
Cell viability (MTT) relative to Vehicle (A549 cells; 50 μM): 95.15 and 105.16 and 99.77 and 98.12
cell viability (Hep G2 cells; Hep G2, 10-50 µM, 24 h): None of the used compound concentrations exerted any cytotoxic effect; also recorded: no significant changes in cell viability
Cell viability (MTT) relative to Vehicle (Hep G2 cells; 10 μM): 91.32 and 107.98 and 99.70 and 117.35 and 109.09 and 100.19
Cell viability (MTT) relative to Vehicle (Hep G2 cells; 20 μM): 95.30 and 117.21 and 108.45 and 112.28 and 97.33 and 109.75
Cell viability (MTT) relative to Vehicle (Hep G2 cells; 30 μM): 92.58 and 115.65 and 108.60 and 112.37 and 92.39 and 103.33
Cell viability (MTT) relative to Vehicle (Hep G2 cells; 40 μM): 107.42 and 114.93 and 105.81 and 114.05 and 107.35 and 99.51
Cell viability (MTT) relative to Vehicle (Hep G2 cells; 50 μM): 91.19 and 110.82 and 100.96 and 118.91
reduction of MvfR binding to the pqs operon promoter ([3]; 50 µM D88, vs control): ~ 80%
PQS-mediated increase in MvfR binding ([3]; D88 50 µM + PQS 38 µM): significantly decreased
MvfR binding to the pqsA promoter (ChIP-qPCR) ([3]; PQS +): 4.271 and 2.782 and 2.485
MvfR binding to the pqsA promoter (ChIP-qPCR) ([3]; PQS −): 1.532 and 0.7796 and 1.309
bacterial dissemination to the intestinal tissues (ileum and colon) (PA14 burn-site infection [4]; burn + PA14, D88, 22 h): significantly reduced
bacterial load at the inoculation site (PA14 burn-site infection [4]; burn + infection, D88, 22 h): not affected
bacterial load at the site of infection (CFUs) (PA14 burn-site infection [4]; infected and D88 treated animals): ~1 × 10^8
mean ileal TNF-α level (TNF-α): 381 pg mL^−1 g^−1 tissue
Clast ([5]; 1 mg/kg IV, plasma): 14.2 ng/mL
Clast ([5]; 10 mg/kg SC, plasma): 66.6 ng/mL
Concentration ([5]; IV Injection 1mg/kg, Time 0.08 h, individual animals, 1 mg/kg): 648 ng/mL and 1150 ng/mL and 1460 ng/mL
Concentration ([5]; IV Injection 1mg/kg, Time 0.33 h, individual animals, 1 mg/kg): 210 ng/mL and 298 ng/mL and 486 ng/mL
Concentration ([5]; IV Injection 1mg/kg, Time 0.67 h, individual animals, 1 mg/kg): 77.1 ng/mL and 131 ng/mL
Concentration ([5]; IV Injection 1mg/kg, Time 1 h, individual animals, 1 mg/kg): 10.9 ng/mL and 25.8 ng/mL and 57.4 ng/mL
Concentration ([5]; SC Injection 10mg/kg, Time 0.08 h, individual animals, 10 mg/kg): 491 ng/mL and 600 ng/mL and 954 ng/mL and 1250 ng/mL
Concentration ([5]; SC Injection 10mg/kg, Time 0.33 h, individual animals, 10 mg/kg): 712 ng/mL and 1020 ng/mL and 1060 ng/mL and 1590 ng/mL
Concentration ([5]; SC Injection 10mg/kg, Time 0.67 h, individual animals, 10 mg/kg): 581 ng/mL and 875 ng/mL and 940 ng/mL and 1190 ng/mL
Concentration ([5]; SC Injection 10mg/kg, Time 1 h, individual animals, 10 mg/kg): 513 ng/mL and 854 ng/mL and 838 ng/mL and 1070 ng/mL
Concentration ([5]; SC Injection 10mg/kg, Time 2 h, individual animals, 10 mg/kg): 746 ng/mL and 683 ng/mL and 744 ng/mL
Concentration ([5]; SC Injection 10mg/kg, Time 3.8 h, individual animals, 10 mg/kg): 90.5 ng/mL and 323 ng/mL and 480 ng/mL and 304 ng/mL
Concentration ([5]; SC Injection 10mg/kg, Time 6 h, individual animals, 10 mg/kg): 21.9 ng/mL and 63.8 ng/mL and 101 ng/mL and 79.7 ng/mL
concentration at 0.67 h ([5]; male, CD-1, mouse, plasma, iv, 1 mg/kg, IV Injection 1mg/kg, Time 0.67 h, individual animals): 76.4 ng/mL
concentration at 2 h ([5]; male, CD-1, mouse, plasma, iv, 1 mg/kg, IV Injection 1mg/kg, Time 2 h, individual animals): 5.9 ng/mL
concentration at 2 h ([5]; male, CD-1, mouse, plasma, sc, 10 mg/kg, SC Injection 10mg/kg, Time 2 h, individual animals): 443 ng/mL
Cmax [5, 8]: 1090 ng/mL
Tmax [5, 8]: 4.8 min
half-life [5, 8]: 16.2 min
Cmax [5, 9]: 1100 ng/mL
Tmax [5, 9]: 19.8 min
half-life [5, 9]: 75 min
ileal IL-6 level (IL-6): marked decrease
cell viability (RAW 264.7 cells; RAW 264.7, 10-50 µM, 24 h): None of the used compound concentrations exerted any cytotoxic effect; also recorded: no significant changes in cell viability
Cell viability (MTT) relative to Vehicle (RAW 264.7 cells; 10 μM): 106.22 and 99.08 and 96.63 and 98.82 and 101.11 and 88.19
Cell viability (MTT) relative to Vehicle (RAW 264.7 cells; 20 μM): 109.67 and 80.39 and 97.97 and 112.02 and 105.97 and 95.04
Cell viability (MTT) relative to Vehicle (RAW 264.7 cells; 30 μM): 93.49 and 78.32 and 83.19 and 78.26 and 102.67 and 94.83
Cell viability (MTT) relative to Vehicle (RAW 264.7 cells; 40 μM): 110.52 and 98.03 and 98.54 and 91.97 and 90.51 and 93.01
Cell viability (MTT) relative to Vehicle (RAW 264.7 cells; 50 μM): 100.26 and 92.62 and 78.32 and 79.67 and 99.66 and 96.62
